One experiment has as its target T1, Leucine aminopeptidase (Plasmodium falciparum 3D7, UniProt Q8IL11).
T1 sequence (Q8IL11 whole entry): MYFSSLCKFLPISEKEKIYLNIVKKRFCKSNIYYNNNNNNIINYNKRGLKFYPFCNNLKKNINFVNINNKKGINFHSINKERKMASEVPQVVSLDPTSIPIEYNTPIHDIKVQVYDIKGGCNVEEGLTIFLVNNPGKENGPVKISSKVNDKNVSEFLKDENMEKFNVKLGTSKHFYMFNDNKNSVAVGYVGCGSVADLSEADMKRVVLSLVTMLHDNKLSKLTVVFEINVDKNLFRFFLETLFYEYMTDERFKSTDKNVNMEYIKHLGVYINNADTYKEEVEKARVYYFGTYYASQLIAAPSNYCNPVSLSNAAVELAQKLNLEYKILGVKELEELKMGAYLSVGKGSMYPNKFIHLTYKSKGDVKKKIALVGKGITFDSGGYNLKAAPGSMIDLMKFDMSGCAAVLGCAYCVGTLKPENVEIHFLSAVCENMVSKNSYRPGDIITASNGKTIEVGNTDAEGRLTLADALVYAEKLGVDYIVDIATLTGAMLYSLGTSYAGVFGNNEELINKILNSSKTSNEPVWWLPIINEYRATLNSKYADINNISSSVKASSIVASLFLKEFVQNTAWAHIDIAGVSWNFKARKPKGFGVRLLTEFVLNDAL
The experiment in a line: P. falciparum M17LAP inhibitors, primary screen, biochemical, fluorogenic H-Leu-NHMec substrate, 1536-well (AID 1619). The class given is functional.

Another experiment relates to Streptococcus. The experiment can be described thus: Group A Streptococcus viability loss, dose response, counter-screen for streptokinase expression inhibitor project, luminescence, BacTiterGlo (AID 1915).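 Note: potency for reduction of bacterial viability or growth.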 The format is functional, organism-based.
The next experiment concerns the target T2, Aminopeptidase N (Plasmodium falciparum FcB1/Columbia, UniProt O96935).
T2 sequence (O96935 whole entry): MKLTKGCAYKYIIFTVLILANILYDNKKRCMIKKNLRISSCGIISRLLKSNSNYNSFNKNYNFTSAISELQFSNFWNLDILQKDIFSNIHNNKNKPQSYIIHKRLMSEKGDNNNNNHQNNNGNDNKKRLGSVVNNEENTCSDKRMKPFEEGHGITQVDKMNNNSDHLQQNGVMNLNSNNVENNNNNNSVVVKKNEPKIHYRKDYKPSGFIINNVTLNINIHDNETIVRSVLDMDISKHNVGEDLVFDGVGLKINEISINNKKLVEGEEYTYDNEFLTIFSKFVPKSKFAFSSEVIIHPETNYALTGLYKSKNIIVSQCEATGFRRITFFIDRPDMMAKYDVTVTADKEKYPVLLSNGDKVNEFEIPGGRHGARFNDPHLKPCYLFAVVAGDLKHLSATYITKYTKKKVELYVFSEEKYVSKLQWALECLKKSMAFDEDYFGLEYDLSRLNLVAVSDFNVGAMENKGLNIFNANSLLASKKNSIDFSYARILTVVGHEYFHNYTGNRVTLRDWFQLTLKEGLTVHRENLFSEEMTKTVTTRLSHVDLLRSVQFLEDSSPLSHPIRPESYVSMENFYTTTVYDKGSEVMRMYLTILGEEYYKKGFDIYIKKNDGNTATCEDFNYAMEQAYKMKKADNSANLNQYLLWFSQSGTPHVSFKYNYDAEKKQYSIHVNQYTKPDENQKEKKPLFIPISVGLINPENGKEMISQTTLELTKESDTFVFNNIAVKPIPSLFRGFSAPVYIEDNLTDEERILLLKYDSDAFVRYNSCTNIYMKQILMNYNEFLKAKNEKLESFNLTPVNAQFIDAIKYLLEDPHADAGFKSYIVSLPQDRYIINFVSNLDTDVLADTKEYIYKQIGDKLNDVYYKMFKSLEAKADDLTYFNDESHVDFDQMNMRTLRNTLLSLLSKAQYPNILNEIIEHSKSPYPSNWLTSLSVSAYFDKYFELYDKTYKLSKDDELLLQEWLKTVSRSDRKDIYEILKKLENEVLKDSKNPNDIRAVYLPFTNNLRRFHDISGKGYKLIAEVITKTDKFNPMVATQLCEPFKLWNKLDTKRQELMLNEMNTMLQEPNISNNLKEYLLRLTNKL
The experiment in a line: P. falciparum M1AAP inhibitors, biochemical, fluorogenic H-Leu-NHMec substrate, 1536-well (AID 1445). Also noted: species or system Plasmodium falciparum 3D7, 3D7.

The test system of experiment [1] is Streptococcus sp. 'group A'. The experiment in a line: growth inhibition of control SK(-) GAS strain, dose response, counter-screen for streptokinase expression inhibitor project, luminescence, kanamycin, BacTiterGlo, confirmation (AID 1900). The format is functional, organism-based. In general terms: A counterscreen serves to expose hits that act by an unwanted route or on another target.

The target of the next experiment is T3, Streptokinase A (Streptococcus pyogenes serotype M1, UniProt P10520).
T3 sequence (P10520 whole entry): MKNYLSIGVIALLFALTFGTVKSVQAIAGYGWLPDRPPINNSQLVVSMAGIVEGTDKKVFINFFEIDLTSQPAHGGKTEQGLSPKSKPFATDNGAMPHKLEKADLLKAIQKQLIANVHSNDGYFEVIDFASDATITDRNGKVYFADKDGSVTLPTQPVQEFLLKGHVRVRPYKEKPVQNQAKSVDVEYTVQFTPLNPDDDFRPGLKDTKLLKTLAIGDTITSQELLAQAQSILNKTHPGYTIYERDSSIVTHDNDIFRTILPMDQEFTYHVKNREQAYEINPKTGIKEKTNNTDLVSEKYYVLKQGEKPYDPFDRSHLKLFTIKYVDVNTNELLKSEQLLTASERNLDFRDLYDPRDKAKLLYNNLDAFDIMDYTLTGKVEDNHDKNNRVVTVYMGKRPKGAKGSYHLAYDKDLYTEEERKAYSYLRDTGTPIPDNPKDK
The experiment in a line: S. pyogenes streptokinase expression inhibitors, potency, dose response, plasminogen activation absorbance, OD405 (AID 1914).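 Note: secreted streptokinase activity via plasminogen activation per viability signal from cell pellet.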 The format is functional, Streptococcus pyogenes M1 GAS.

The next experiment deals with Large T antigen (Simian virus 40, UniProt P03070). The class given is functional, Betapolyomavirus macacae.
Experiment [2] has as its target T4, Histone-lysine N-methyltransferase NSD2 (Homo sapiens, UniProt O96028).
T4 sequence (O96028 whole entry): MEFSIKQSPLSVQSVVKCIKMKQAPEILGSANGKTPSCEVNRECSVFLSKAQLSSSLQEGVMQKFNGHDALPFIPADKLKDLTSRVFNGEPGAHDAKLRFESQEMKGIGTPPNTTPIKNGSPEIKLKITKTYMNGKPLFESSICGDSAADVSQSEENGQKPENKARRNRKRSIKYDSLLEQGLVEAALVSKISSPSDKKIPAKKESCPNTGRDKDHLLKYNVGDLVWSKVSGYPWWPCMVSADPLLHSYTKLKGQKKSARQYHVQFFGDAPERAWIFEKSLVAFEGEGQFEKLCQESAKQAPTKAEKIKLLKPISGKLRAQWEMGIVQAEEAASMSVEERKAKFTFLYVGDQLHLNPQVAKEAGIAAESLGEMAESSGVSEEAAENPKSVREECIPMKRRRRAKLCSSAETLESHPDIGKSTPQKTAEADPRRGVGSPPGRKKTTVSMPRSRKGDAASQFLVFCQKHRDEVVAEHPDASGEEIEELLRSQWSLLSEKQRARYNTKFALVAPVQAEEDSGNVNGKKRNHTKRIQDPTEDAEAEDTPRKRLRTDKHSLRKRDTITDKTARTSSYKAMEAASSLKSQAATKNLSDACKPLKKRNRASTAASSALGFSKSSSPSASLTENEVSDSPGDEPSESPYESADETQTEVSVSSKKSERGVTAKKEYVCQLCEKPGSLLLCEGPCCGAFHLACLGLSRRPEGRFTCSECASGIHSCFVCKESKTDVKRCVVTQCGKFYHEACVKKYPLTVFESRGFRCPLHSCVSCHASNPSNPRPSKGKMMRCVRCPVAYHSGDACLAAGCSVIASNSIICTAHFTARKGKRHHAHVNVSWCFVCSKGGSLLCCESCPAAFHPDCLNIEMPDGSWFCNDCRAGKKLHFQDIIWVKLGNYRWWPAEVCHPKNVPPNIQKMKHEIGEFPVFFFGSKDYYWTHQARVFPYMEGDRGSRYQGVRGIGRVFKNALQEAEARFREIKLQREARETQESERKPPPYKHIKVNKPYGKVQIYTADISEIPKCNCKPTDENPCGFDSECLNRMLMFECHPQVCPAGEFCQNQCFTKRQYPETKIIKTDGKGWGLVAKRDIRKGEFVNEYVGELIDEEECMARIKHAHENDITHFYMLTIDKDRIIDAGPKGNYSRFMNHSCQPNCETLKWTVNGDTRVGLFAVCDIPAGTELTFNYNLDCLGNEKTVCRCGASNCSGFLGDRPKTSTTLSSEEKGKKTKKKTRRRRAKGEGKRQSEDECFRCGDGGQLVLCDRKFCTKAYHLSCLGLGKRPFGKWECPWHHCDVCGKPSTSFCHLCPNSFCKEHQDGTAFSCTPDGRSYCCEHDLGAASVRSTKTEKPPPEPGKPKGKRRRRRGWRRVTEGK
The class given is biochemical.

Experiment [3] has as its target Peroxisome proliferator-activated receptor gamma/Nuclear receptor coactivator 2 (Homo sapiens, UniProt P37231). The class given is functional.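 Note: agonist potency for raising coactivator recruitment to the receptor.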
Experiment [4] has as its target Peroxisome proliferator-activated receptor gamma/Nuclear receptor coactivator 1 (Homo sapiens, UniProt P37231). The class given is functional.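 Note: agonist potency as compounds enhance coactivator SRC-1 recruitment to PPARgamma.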
Experiment [5] concerns the target Peroxisome proliferator-activated receptor gamma/Nuclear receptor coactivator 3 (Homo sapiens, UniProt P37231). The class given is functional.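 Note: agonist potency for raising coactivator recruitment to the receptor.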

Active and inactive are the calls of the source.

This passage reports IC50, EC50 and AC50 results from ChEMBL document CHEMBL1201862, “PubChem BioAssay data set” (2004).

Large T antigen, sequence (P03070 whole entry): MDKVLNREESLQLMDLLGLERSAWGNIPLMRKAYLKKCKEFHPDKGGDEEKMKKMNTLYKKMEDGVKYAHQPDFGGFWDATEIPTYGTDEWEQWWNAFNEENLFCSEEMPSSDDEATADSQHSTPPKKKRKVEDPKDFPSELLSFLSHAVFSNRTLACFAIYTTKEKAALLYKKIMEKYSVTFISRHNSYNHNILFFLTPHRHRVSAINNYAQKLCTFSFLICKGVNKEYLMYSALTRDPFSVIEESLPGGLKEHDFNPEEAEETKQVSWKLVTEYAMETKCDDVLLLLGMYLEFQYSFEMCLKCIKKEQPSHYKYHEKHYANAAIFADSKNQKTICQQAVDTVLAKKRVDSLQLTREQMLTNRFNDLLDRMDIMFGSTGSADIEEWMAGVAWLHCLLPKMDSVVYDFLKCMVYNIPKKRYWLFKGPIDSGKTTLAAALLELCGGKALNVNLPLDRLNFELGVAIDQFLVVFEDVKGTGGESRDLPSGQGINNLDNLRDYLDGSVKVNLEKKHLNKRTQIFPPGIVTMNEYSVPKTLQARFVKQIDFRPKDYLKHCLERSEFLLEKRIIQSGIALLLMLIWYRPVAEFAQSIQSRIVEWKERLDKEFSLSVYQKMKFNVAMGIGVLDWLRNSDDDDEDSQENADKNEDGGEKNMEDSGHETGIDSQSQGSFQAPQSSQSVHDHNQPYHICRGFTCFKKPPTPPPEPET
Peroxisome proliferator-activated receptor gamma/Nuclear receptor coactivator 3, sequence (P37231 whole entry): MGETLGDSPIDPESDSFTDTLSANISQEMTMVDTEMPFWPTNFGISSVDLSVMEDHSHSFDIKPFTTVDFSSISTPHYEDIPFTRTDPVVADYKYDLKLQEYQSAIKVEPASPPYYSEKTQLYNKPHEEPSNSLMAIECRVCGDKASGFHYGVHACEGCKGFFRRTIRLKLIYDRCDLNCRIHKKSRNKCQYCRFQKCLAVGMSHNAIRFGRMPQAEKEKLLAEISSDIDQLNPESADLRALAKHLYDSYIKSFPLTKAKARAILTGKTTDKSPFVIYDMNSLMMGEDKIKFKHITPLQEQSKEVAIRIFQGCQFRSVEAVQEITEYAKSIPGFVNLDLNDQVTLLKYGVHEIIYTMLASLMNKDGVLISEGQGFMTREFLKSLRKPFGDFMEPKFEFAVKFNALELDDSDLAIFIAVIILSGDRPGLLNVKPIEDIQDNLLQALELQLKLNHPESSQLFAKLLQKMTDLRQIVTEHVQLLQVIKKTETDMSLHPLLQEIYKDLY
Peroxisome proliferator-activated receptor gamma/Nuclear receptor coactivator 3, sequence (Q9Y6Q9 whole entry, further chain): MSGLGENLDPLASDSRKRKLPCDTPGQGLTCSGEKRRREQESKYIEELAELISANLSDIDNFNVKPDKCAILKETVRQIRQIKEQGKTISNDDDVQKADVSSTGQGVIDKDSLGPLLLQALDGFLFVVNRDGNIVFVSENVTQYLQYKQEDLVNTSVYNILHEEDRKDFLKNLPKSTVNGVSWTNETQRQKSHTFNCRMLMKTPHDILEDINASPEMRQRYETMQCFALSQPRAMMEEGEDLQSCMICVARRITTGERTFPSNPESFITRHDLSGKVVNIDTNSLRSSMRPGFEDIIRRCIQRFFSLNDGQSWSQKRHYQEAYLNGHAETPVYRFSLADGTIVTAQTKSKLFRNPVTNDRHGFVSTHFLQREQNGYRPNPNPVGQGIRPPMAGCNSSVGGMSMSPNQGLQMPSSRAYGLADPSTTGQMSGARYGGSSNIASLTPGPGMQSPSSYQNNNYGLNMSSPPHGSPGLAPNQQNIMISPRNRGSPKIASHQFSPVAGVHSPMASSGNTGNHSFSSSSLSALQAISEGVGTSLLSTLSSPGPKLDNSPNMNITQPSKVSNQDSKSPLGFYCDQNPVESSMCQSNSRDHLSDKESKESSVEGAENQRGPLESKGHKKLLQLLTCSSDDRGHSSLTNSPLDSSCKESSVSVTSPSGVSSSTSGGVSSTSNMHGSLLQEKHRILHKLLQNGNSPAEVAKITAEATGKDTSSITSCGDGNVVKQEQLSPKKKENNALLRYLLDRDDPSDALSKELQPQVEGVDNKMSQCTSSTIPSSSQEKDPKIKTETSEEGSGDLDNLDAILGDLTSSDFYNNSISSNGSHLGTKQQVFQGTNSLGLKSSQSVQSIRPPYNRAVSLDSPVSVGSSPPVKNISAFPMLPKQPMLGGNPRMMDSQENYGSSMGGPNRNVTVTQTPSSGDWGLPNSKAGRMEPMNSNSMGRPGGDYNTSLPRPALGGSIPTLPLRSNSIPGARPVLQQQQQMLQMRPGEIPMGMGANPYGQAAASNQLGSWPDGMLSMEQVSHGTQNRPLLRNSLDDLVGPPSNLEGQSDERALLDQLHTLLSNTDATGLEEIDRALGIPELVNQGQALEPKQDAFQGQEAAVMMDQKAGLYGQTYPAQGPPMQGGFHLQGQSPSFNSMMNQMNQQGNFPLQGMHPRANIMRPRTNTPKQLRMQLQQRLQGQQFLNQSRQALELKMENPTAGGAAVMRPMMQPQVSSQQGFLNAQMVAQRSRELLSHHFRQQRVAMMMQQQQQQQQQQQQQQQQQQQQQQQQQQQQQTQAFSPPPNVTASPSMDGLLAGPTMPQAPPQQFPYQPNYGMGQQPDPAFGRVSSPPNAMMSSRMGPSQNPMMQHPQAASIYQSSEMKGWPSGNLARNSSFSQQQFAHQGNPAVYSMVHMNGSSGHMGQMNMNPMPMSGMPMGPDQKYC
Peroxisome proliferator-activated receptor gamma/Nuclear receptor coactivator 1, sequence (P37231 whole entry): as the sequence (P37231 whole entry) above
Peroxisome proliferator-activated receptor gamma/Nuclear receptor coactivator 1, sequence (Q15788 whole entry, further chain): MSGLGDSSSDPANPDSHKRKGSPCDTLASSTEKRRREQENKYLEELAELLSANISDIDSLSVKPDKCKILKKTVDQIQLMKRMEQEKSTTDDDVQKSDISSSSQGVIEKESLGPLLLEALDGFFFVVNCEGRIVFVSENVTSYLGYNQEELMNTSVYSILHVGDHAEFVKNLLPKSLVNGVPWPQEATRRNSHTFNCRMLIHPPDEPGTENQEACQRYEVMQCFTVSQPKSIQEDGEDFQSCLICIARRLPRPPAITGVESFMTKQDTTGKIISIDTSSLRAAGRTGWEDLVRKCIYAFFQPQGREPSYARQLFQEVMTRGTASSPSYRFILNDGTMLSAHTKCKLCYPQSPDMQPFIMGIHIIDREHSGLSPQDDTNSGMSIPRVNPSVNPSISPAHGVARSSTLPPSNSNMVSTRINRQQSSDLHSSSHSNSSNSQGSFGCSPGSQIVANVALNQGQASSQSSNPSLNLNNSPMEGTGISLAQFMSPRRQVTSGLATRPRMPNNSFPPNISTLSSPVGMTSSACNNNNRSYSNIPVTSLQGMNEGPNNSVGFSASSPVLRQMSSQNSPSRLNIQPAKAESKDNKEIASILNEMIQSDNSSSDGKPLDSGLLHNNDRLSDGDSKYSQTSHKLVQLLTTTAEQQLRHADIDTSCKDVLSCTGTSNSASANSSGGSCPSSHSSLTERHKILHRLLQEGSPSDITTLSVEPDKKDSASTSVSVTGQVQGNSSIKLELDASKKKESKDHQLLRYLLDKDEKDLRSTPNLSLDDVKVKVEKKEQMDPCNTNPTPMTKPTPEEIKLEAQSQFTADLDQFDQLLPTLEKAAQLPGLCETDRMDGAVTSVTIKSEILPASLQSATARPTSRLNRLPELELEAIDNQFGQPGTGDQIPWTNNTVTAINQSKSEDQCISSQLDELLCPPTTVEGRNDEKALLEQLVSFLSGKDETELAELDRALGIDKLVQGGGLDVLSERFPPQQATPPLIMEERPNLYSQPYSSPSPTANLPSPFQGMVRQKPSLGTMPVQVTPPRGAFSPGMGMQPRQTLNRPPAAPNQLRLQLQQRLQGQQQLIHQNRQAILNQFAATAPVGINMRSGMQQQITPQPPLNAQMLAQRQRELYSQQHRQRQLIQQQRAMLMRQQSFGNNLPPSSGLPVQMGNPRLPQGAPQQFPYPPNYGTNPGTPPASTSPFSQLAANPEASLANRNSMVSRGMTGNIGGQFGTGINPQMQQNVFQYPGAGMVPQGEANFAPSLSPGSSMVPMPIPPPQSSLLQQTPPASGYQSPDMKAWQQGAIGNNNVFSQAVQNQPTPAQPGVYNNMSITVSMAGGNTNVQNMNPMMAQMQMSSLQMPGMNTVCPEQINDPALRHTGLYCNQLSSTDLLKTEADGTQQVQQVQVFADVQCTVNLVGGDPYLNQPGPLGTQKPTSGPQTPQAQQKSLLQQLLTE

Consider `Cc1csc(NC(=O)COCC(=O)O)c1-c1nc2ccccc2s1`, for which the IC50 at Leucine aminopeptidase is 35.1 µM (active); on Aminopeptidase N, 17.1 µM (active). Further, the EC50 is 22.3 µM (active) with Streptococcus, 5.48 µM (active) in experiment [1] and > 150 µM (not active) at Streptokinase A.

Turning to `CSC1=NSC2=NC(=O)/C(=C\c3coc4ccccc4c3=O)C(=N)N12`, the IC50 at Large T antigen is 67.1 µM (active). For the same compound, the AC50 in [2] was 11.7 µM (active).

For the compound `OC[C@H]1O[C@@H](Oc2cc(O)cc(/C=C/c3ccc(O)cc3)c2)[C@H](O)[C@@H](O)[C@@H]1O` [PICEID], the IC50 at Large T antigen is 11.2 µM (active).

Consider `CCc1nnc(NS(=O)(=O)c2ccc(NC(=S)NC(=O)/C=C/c3cccs3)cc2)s1`, for which the IC50 was 9.13 µM (active) at Leucine aminopeptidase and 79.4 µM (active) at Aminopeptidase N. Also, the EC50 in experiment [3], in experiment [4] and in experiment [5] was > 79.4 µM (not active) each time.

As for `CCN(CC)CCCCN1c2ccccc2Sc2ccccc21`, on Large T antigen, the IC50 was 14.2 µM (active).

Usually IC50 stands for the point on the concentration scale where inhibition reaches its midpoint. For orientation: EC50 means the concentration that produces a half-maximal response. In general, AC50 refers to the midpoint of the concentration-response curve, whichever way the signal moves.
